For test [1], the system named is BT474 human breast cancer cells. In words: In vitro growth inhibition assay ([3H] thymidine incorporation), BT474. In kind it is cell-based. Particulars: 0.01 μM Lapatinib, 50 μg/ml pAb, 72 h, FIG. 11A. The procedure: (§1) The antiproliferative effect of vaccine induced anti HER2 polyclonal antibodies (pAb) in combination with Lapatinib was evaluted on human breast cancer cells overexpressing the HER2/neu molecule (BT474 and SKBR3 cells) using the [^3H] thymidine incorporation method. Briefly, 10e4 cells were seeded in 200 μl, in triplicate, in 96-w plates and incubated for 72 h at 37° C. in • 1) medium; • 2) medium containing Lapatinib alone (0.01 μM); • 3) medium containing pAb alone (50 μg/ml); • 4) medium containing pre-immune pAb (TA2021) (50 μg/ml); • 5) a combination of (2) Lapatinib (0.01 μM ) and (3) pAb (50 μg/ml); or • 6) a combination of (2) Lapatinib (0.01 μM ) and (4) pre-immune pAb (TA2021) (50 μg/ml).
(§2) 1 μCi of [^3H] Thymidine (5 Ci/mmol; Amersham) was added for an additional 24 h after which cells were harvested by trypsinisation onto filter plates and the incorporated radioactivity was counted in a beta counter. Results were expressed in cpm and the percentage of growth inhibition was calculated referring to the medium.

For test [2], the system named is SKBR3 human breast cancer cells. In words: In vitro growth inhibition assay ([3H] thymidine incorporation), SKBR3. It counts as cell-based. Particulars: 0.01 μM Lapatinib, 50 μg/ml pAb, 72 h, FIG. 11B. The procedure: as §1, §2
The next test has as its system BT474 cells. Kind of test: Apoptosis by annexin V staining and flow cytometry, BT474. In kind it is cell-based, human. Particulars: lapatinib 0.1 μM, pAb 100 μg/ml, trastuzumab 10 μg/ml, 72 hr, FIG. 12A top.
The next test concerns survivin. In words: Western blot of steady state survivin protein, BT474 cells. In kind it is cell-based, human. The settings on record: lapatinib 0.1 μM, pAb 100 μg/ml, trastuzumab 10 μg/ml, 72 hr, FIG. 12A bottom. The procedure:
(§3) To assess the levels of various proteins in cells, whole cell extracts were prepared by scraping cells off petri dishes, washing the cell pellet twice in phosphate buffered saline (PBS), and then resuspending the pellet in two-packed-cell volumes of RIPA buffer(150 mM NaCl, 50 mM Tris-HCl, pH 7.5, 0.25% (w/v) deoxycholate, 1% NP-40, 5 mM sodium orthovanadate, 2 mM sodium fluoride, and a protease inhibitor cocktail). Protein concentrations were determined using a modification of the Bradford method (Bio-Rad Laboratory). […] The immunoprecipitates were separated by 4-15% gradient SDS-polyacrylamide […] gel electrophoresis (SDS-PAGE), and ErbB receptors were detected by Western Blot with anti-ErbB receptor antibodies.
(§4) Steady state levels of Survivin, total ErbB2, phosphorylated ErbB2 (pErbB2 or pTyr), total Erk1/2 , activated Erk1/2 (p-Erk), total pErbB3, activated pErbB3 (pErbB3), total AKT protein and activated Akt (p-Akt) protein were assessed by Western blot. Levels of pErbB2 were assessed using an antibody that bound to multiple tyrosine-phosphorylated forms of ErbB2 (i.e., the antibody was not phosphorylation-site specific). […]
(§5) For Western blot, equal amounts of proteins were resolved by either 7.5% or 4-15% gradient SDS polyacrylamide gel electrophoresis under reducing conditions. […] Efficiency and equal loading of proteins was evaluated by Ponceau S staining. […]

In the next test the target is T1, phospho-ErbB2 (p-ErbB2) (Homo sapiens, UniProt P04626).
T1 construct: whole cell extracts were prepared by scraping cells off petri dishes; host or cells: BT474
Kind of test: Western blot of activated phospho-ErbB2, BT474 cells. It counts as cell-based. The settings on record: lapatinib 0.1 μM, pAb 100 μg/ml, trastuzumab 10 μg/ml, 72 hr, FIG. 12A bottom. As to the method: as §3, §4, §5

In a further test the target is T2, total ErbB2 (Homo sapiens, UniProt P04626).
T2 construct: whole cell extracts were prepared by scraping cells off petri dishes; host or cells: BT474
Kind of test: Western blot of total ErbB2, BT474 cells. It counts as cell-based. The settings on record: lapatinib 0.1 μM, pAb 100 μg/ml, trastuzumab 10 μg/ml, 72 hr, FIG. 12A bottom. As to the method: as §3, §4, §5

The subject of the next test is phospho-Erk1/2. In words: Western blot of activated phospho-Erk1/2, BT474 cells. In kind it is cell-based, human. The settings on record: 72 hr, FIG. 13. The procedure:
as §3, §4, §5

In the next test the test system is phospho-Akt. In words: Western blot of activated phospho-Akt, BT474 cells. It counts as cell-based, human. The settings on record: 72 hr, FIG. 13. As to the method: as §3, §4, §5

Structures are written as SMILES.

T1 sequence (P04626 23-1255): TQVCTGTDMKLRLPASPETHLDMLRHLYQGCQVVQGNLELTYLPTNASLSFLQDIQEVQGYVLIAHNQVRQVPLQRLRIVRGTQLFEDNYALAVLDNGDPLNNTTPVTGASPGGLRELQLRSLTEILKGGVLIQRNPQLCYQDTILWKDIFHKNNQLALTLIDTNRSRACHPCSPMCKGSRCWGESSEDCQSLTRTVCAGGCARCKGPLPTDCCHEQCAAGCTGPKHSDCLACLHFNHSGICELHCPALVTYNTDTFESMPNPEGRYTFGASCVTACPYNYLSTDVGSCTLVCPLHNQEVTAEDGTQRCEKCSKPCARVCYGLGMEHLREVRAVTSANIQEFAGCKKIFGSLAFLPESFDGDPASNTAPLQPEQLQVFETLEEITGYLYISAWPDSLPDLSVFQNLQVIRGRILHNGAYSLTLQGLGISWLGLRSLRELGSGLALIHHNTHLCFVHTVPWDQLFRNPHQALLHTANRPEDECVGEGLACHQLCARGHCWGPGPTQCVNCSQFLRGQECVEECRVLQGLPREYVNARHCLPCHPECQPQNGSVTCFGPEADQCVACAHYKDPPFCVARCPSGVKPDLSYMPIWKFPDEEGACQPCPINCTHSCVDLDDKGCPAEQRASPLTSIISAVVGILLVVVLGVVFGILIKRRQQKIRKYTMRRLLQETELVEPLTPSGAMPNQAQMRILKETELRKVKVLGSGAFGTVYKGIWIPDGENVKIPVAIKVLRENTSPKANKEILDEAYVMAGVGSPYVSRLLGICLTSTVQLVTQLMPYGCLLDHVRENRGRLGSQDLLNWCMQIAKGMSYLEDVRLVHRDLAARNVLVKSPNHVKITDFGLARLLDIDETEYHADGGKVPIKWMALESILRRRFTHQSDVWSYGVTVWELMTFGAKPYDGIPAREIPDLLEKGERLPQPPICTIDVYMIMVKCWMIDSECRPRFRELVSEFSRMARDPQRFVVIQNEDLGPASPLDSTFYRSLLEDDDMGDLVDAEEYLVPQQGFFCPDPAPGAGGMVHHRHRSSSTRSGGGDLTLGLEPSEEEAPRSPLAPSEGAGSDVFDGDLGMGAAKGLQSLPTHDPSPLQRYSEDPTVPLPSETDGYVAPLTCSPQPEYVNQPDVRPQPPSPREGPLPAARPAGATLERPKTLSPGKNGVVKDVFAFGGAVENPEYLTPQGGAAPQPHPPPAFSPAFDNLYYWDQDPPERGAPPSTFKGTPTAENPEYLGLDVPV
T2 sequence (P04626 23-1255): as above

With `CS(=O)(=O)CCNCc1ccc(-c2ccc3ncnc(Nc4ccc(OCc5cccc(F)c5)c(Cl)c4)c3c2)o1` [lapatinib, N-{3-Chloro-4-[(3-fluorobenzyl)oxy]phenyl}-6-[5-({[2-(methanesulphonyl)ethyl]amino}methyl)-2-furyl]-4-quinazolmamine], the growth inhibition result in test [1] and in test [2] was “only modest growth inhibition” throughout. Moreover, in the test on BT474 cells, the apoptosis result is reported as “slight increase in apoptosis”. Also, the survivin protein expression entry in the test on survivin is reported as “inhibited”. Moreover, the “steady-state levels of activated, phosphorylated ErbB2 protein (pErbB2)” value on phospho-ErbB2 (p-ErbB2) was “inhibited”. The “total ErbB2 protein” value on total ErbB2 was “without affecting total ErbB2 protein”. The “steady state levels of pErk1/2” value in the test on phospho-Erk1/2 is on record as “reduced”. The “steady state levels of pAkt” value in the test on phospho-Akt is recorded as “reduced”.

The record behind these values is patent US20100028414A1, “COMBINATION OF TYROSINE KINASE INHIBITOR AND HER-2/NEU FOR CANCER THERAPY” (priority 2004, published 2010).
